Assay results published in US8124764B2, “Fused heterocyclyc inhibitor compounds” (Gilead Sciences, Inc., priority 2008, dated 2012).

Tests used:
HDAC 1 = HDAC 1 (Homo sapiens, UniProt Q13547); test: HDAC 1 inhibition assay with about 3 hours enzyme/compound preincubation (fluorophore/quencher peptide substrate); assay type: biochemical; conditions: 3-hour preincubation of enzyme with compound; read-out: HDAC 1 inhibitory activity (IC50 [μM]) (3-hour preincubation)
CDK2 = CDK2 (Homo sapiens, UniProt P24941); test: CDK2 inhibition; assay type: biochemical

HDAC 1, sequence (Q13547 whole entry, species assumed): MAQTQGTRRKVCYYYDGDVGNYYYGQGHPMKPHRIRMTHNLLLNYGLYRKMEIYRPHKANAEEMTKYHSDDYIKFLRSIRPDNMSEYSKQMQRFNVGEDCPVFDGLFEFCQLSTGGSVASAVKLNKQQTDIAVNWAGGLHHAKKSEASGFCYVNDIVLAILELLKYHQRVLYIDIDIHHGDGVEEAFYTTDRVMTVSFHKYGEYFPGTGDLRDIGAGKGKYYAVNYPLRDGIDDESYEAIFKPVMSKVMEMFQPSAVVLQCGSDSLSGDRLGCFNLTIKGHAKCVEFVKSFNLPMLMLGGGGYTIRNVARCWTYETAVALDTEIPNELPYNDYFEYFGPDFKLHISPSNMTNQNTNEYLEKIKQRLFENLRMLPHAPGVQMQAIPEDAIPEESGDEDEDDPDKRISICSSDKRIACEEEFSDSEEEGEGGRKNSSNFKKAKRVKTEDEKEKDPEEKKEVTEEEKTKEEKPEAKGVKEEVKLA

| SMILES | IC50 (HDAC 1) [µM] | IC50 (CDK2) [µM] |
| --- | --- | --- |
| Cc1nc2ccccn2c1-c1ccnc(Nc2ncc(C(=O)NO)s2)c1 [Example 73, N-hydroxy-2-(4-(2-methylimidazo[1,2-a]pyridin-3-yl)pyridin-2-ylamino)thiazole-5-carboxamide] | 0.185 | 1.68 |
| O=C(NO)c1ccc(N(CC(F)(F)F)c2nccc(-c3cnc4ccccn34)n2)cc1 [Example 57, N-Hydroxy-4-[(4-imidazo[1,2-a]pyridin-3-yl-pyrimidin-2-yl)-(2,2,2-trifluoro-ethyl)-amino]-benzamide] | 0.147 | 2.87 |
| Cc1nc2ccccn2c1-c1ccnc(Nc2ncc(C(=O)Nc3ccccc3N)s2)n1 [Example 63, N-(2-aminophenyl)-2-(4-(2-methylimidazo[1,2-a]pyridin-3-yl)pyrimidin-2-ylamino)thiazole-5-carboxamide] | 0.224 | 3.53 |
